Values of other authors, collected in patent US20190307762A1, “METHODS AND COMPOSITIONS FOR THE TREATMENT OF TRAUMA AND STRESSOR-RELATED DISORDERS” (priority 2016, published 2019).

Experiments:
[1] = for Equivalent amount: dose equivalent to 20 mg hydrocortisone; for Hydrocortisone equivalent (1 mg of the glucocorticoid corresponds to the listed amount in mg of hydrocortisone): per 1 mg of the glucocorticoid
cytochrome P-450 3A4 = cytochrome P-450 3A4 (Homo sapiens, UniProt P08684)
[2] = system: generalized anxiety disorders; details: versus placebo and alprazolam
cholinergic receptors = details: in vitro
sigma 2 receptors = sigma 2 receptors (Homo sapiens, UniProt Q5BJF2)
Chain of sigma 2 receptors (Q5BJF2 whole entry): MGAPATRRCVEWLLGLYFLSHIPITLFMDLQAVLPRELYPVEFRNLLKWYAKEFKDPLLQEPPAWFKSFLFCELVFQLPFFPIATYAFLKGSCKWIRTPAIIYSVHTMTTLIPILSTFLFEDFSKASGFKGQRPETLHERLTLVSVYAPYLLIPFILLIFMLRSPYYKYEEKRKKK

[3] = in vivo
[4] = system: histamine (H1.H2), serotonin (5-HT2), dopamine (D2.D1), adrenergic (al) receptors; details: in vitro; decreasing order H1.H2, 5-HT2, D2.D1, al
neurological tissue = details: preclinical; linked to binding to sigma one receptors
[5] = system: serotonin (5-HT) or noradrenaline reuptake

Chain of cytochrome P-450 3A4 (P08684 whole entry): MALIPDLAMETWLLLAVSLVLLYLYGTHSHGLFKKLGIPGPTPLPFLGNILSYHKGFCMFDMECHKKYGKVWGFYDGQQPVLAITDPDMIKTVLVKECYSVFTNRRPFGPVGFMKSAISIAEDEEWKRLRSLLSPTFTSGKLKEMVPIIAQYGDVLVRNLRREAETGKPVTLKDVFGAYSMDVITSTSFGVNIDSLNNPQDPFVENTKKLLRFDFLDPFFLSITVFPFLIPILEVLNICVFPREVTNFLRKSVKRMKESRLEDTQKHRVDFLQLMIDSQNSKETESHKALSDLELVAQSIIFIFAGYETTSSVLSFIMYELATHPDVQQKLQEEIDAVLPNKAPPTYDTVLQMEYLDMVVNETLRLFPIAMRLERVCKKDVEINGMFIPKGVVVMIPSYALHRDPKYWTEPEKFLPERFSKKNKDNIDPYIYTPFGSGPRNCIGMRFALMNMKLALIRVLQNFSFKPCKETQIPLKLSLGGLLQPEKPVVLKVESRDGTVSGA

SMILES | Equivalent amount [1] [mg] | Hydrocortisone equivalent (1 mg of the glucocorticoid corresponds to the listed amount in mg of hydrocortisone) [1] [mg] | further results
C[C@H]1C[C@H]2[C@@H]3CCC4=CC(=O)C=C[C@]4(C)[C@@]3(F)[C@@H](O)C[C@]2(C)[C@@]1(O)C(=O)CO [Betarnethasone] | 0.75 | 26.66 | 
CC(=O)OCC(=O)[C@@]1(O)CC[C@H]2[C@@H]3CCC4=CC(=O)CC[C@]4(C)[C@H]3C(=O)C[C@@]21C [Cortisone acetate] | 25 | 0.8 | 
C[C@]12CCC(=O)C=C1CC[C@@H]1[C@@H]2[C@@H](O)C[C@@]2(C)[C@H]1CC[C@]2(O)C(=O)CO [Hydrocortisone] | 20 | 1 | 
C[C@@H]1C[C@H]2[C@@H]3C[C@H](F)C4=CC(=O)C=C[C@]4(C)[C@H]3[C@@H](O)C[C@]2(C)[C@@]1(O)C(=O)CO [Pararnethasone] | 2 | 10 | 
C[C@]12C=CC(=O)C=C1CC[C@@H]1[C@@H]2[C@@H](O)C[C@@]2(C)[C@H]1CC[C@]2(O)C(=O)CO [Prednisolone] | 5 | 4 | 
C[C@]12C=CC(=O)C=C1CC[C@H]1[C@@H]3C[C@@H](O)[C@](O)(C(=O)CO)[C@@]3(C)C[C@H](O)[C@@]12F [Triamcinolone] | 4 | 5 | 
OCCN1CCN(CCCN2c3ccccc3C=Cc3ccccc32)CC1 [opipramol] |  |  | CYP substrate (cytochrome P-450 3A4): CYP3A substrate; sigma ligand strength (sigma): strong sigma ligand; anxiolytic efficacy [2]: superiority over placebo and similar efficacy to alprazolam; levels of cGMP (cGMP): induces increased levels of cGMP; receptor blockade (cholinergic receptors): very weakly; signaling at sigma 2 receptors (sigma 2 receptors): down regulate signaling at sigma 2 receptors; risk of drug dependence [3]: no risk of drug dependence; receptor blockade [4]: blocks the following receptors in decreasing order; protection against glutamate mediated toxicity (neurological tissue): ability to protect neurological tissue against the effects of glutamate mediated toxicity; reuptake inhibiting properties [5]: without reuptake inhibiting properties
